Measurements taken from the CheMixHub viscosity set.

Experiment: xn = mol fraction of the nth substance listed

CCCCCCCCCCCC(=O)OC + CC(C)C1CCCCC1
viscosity [mPa·s], 100 kPa
Conditions | x2 = 0.1008 | x2 = 0.2004 | x2 = 0.3006 | x2 = 0.4002 | x2 = 0.5004 | x2 = 0.6003 | x2 = 0.7001 | x2 = 0.8 | x2 = 0.9001
293.15 K | 2.862 | 2.608 | 2.365 | 2.139 | 1.93 | 1.728 | 1.546 | 1.378 | 1.229
298.15 K | 2.558 | 2.342 | 2.133 | 1.937 | 1.756 | 1.579 | 1.419 | 1.271 | 1.137
303.15 K | 2.303 | 2.117 | 1.936 | 1.765 | 1.606 | 1.45 | 1.308 | 1.176 | 1.056
308.15 K | 2.088 | 1.926 | 1.768 | 1.617 | 1.476 | 1.338 | 1.211 | 1.093 | 0.984
313.15 K | 1.904 | 1.759 | 1.621 | 1.488 | 1.363 | 1.239 | 1.126 | 1.018 | 0.92
318.15 K | 1.743 | 1.616 | 1.493 | 1.375 | 1.262 | 1.152 | 1.05 | 0.952 | 0.863
323.15 K | 1.602 | 1.49 | 1.38 | 1.274 | 1.174 | 1.074 | 0.981 | 0.893 | 0.812

COC(=O)CC(C)=O + CC(C)CO
viscosity [mPa·s], 101.3 kPa
Conditions | x1 = 0.1046 | x1 = 0.2052 | x1 = 0.3095 | x1 = 0.4094 | x1 = 0.5075 | x1 = 0.6057 | x1 = 0.7026 | x1 = 0.8059 | x1 = 0.902
298.15 K | 2.24 | 1.81 | 1.598 | 1.463 | 1.385 | 1.352 | 1.35 | 1.38 | 1.449
303.15 K | 1.944 | 1.591 | 1.412 | 1.303 | 1.241 | 1.221 | 1.223 | 1.251 | 1.312
308.15 K | 1.696 | 1.407 | 1.257 | 1.17 | 1.124 | 1.108 | 1.114 | 1.143 | 1.198

CCCCCC[n+]1ccn(C)c1.O=S(=O)([O-])C(F)(F)F + CC(C)O
Conditions | viscosity [mPa·s]
298.15 K, 100 kPa, x2 = 0.1282 | 99.47

CCOC(C)=O + CC(C)O
viscosity [mPa·s], 101.3 kPa
Conditions | x1 = 0.1003 | x1 = 0.2045 | x1 = 0.3082 | x1 = 0.4005 | x1 = 0.4994 | x1 = 0.5952 | x1 = 0.7049 | x1 = 0.7916 | x1 = 0.9011
298.15 K | 1.326 | 0.9655 | 0.767 | 0.6606 | 0.5797 | 0.5283 | 0.4812 | 0.466 | 0.4473
303.15 K | 1.177 | 0.8717 | 0.701 | 0.6122 | 0.5391 | 0.4939 | 0.4525 | 0.4389 | 0.4233
308.15 K | 1.044 | 0.7861 | 0.6407 | 0.5644 | 0.5011 | 0.4617 | 0.4257 | 0.4153 | 0.4006
313.15 K | 0.9286 | 0.7126 | 0.5876 | 0.5224 | 0.4673 | 0.4332 | 0.4012 | 0.3911 | 0.3793
318.15 K | 0.8325 | 0.6477 | 0.5427 | 0.4856 | 0.4365 | 0.4066 | 0.3798 | 0.3711 | 0.3605
323.15 K | 0.7498 | 0.5901 | 0.501 | 0.4503 | 0.4088 | 0.3831 | 0.3586 | 0.3513 | 0.343

COC(=O)CC(C)=O + CC(C)O
viscosity [mPa·s], 101.3 kPa
Conditions | x1 = 0.1028 | x1 = 0.2052 | x1 = 0.3051 | x1 = 0.4085 | x1 = 0.4086 | x1 = 0.5084 | x1 = 0.6057 | x1 = 0.7079 | x1 = 0.8053 | x1 = 0.9038
298.15 K | 1.457 | 1.267 | 1.195 | 1.168 | – | 1.16 | 1.189 | 1.243 | 1.315 | 1.419
303.15 K | 1.279 | 1.124 | 1.068 | 1.051 | – | 1.049 | 1.08 | 1.127 | 1.197 | 1.287
308.15 K | 1.023 | 1.006 | 0.963 | – | 0.952 | 0.956 | 0.985 | 1.032 | 1.094 | 1.133

FC(F)(F)C(F)(F)Cl + CC(F)F
Conditions | viscosity [mPa·s]
299.88 K, 101.13 kPa, x1 = 0.69 | 0.1856

OCC(O)CO + CCC(C)O
viscosity [mPa·s], 101.33 kPa
Conditions | x1 = 0.103 | x1 = 0.2005 | x1 = 0.3005 | x1 = 0.4065 | x1 = 0.5004 | x1 = 0.6005 | x1 = 0.6997 | x1 = 0.7989 | x1 = 0.8998
298.15 K | 4.899 | 8.259 | 14.21 | 26.4 | 50.58 | 96.78 | 190.1 | 327.9 | 521.9
308.15 K | 3.311 | 5.321 | 8.761 | 15.79 | 27.46 | 49.39 | 90.98 | 149.4 | 231.6
318.15 K | 2.387 | 3.648 | 5.727 | 9.681 | 15.6 | 26.39 | 45.42 | 71.57 | 107.4

CCCCCCCCCCCCCCCCCCCl + CCCCC
298 K, 101.3 kPa
Conditions | viscosity [mPa·s]
x2 = 0.1054 | 6.009
x2 = 0.2014 | 4.945
x2 = 0.3067 | 3.902
x2 = 0.4166 | 2.952
x2 = 0.4993 | 2.325
x2 = 0.6122 | 1.613
x2 = 0.7054 | 1.157
x2 = 0.8048 | 0.7477
x2 = 0.9029 | 0.431
